Experimental findings from PMC7920489 (Pharmaceuticals, 2021) are described below.

For data set [1] the following is noted: nude, mouse, in vivo, ip, 50 mg/kg.
A further data set can be described thus: in vivo. The conditions noted are these: nude, mouse, ip, 50 mg/kg.

Like-named read-outs stand apart in the source and are kept apart here.

Turning to `COc1cccc(-c2cc(=O)c3ccccc3o2)c1NC(=O)C(C)(C)c1cc(C(=O)Nc2ccc(N(CCCl)CCCl)cc2)ccc1N` [AL530], the tmax turned out to be 2.5 h in data set [1] and 2 h in “in vivo”.
